According to US20260014134A1, “COMPOSITION FOR TOPICAL DERMATOLOGICAL DELIVERY” (Limeway Pharma Design Limited, priority 2020, published 2026):
Several values for one entry are separate records, joined by “and”; a condition that tells them apart may be missing. Equal values may be shown once. Read-outs that look alike come from different tables or passages of the source. Each block holds one compound with its values, some of them ahead of it.

Legend:
[1] = Solubility of diffusion coefficient enhancers in propylene glycol and caprylyl methicone; type: physicochemical; conditions: 23-25° C.
Text: As described previously, diffusion coefficient-enhancing excipients (DC enhancers) commonly comprise alcohol, acid or ester derivatives of C8-C22 hydrocarbons.
Conversely, lower carbon chain length acids and alcohols such as C8 and C10 alcohols and C8 and C10 acids may be considered to be far too soluble in hydrocarbyl methyl siloxanes including caprylyl methicone, such that their performance as diffusion coefficient-enhancing excipients would be adversely affected. Similarly, medium chain (for instance C14-C16) isopropyl esters are far too soluble in hydrocarbyl methyl siloxanes such as caprylyl methicone to allow performance as DC enhancers. For both of these classes of DC enhancer, up to 50% DC enhancer would be required to be at or near saturation in the non-volatile residual phase. In contrast, the C12-C14 acids and C14 alcohol have appropriate solubility in caprylyl methicone.
As an example of the outline design of a simple co-enhancer system comprising propylene glycol, and, for example, a C14 alcohol diffusion coefficient enhancer with caprylyl methicone, we might first consider that the concentration of propylene glycol and caprylyl methicone in the final composition (otherwise consisting of non-solvents) to be 25% of each. On this basis, the total amount of C14 alcohol to saturate both of these phases would be 2.44%/4+2.30%/4=1.185%, approximately 1.2%. […]

[2] = cited from earlier work
melasma = conditions: oral, over 12 weeks; cited from earlier work
[3] = system: patients with mild-moderate psoriasis; conditions: end of 12 weeks; cited from earlier work
[4] = Saturated solubility of corticosteroids in liquid silicones; type: physicochemical; conditions: including caprylyl methicone
[5] = system: acute radiation dermatitis; conditions: topical cream; cited from earlier work
[6] = system: IL-1 beta, IL-6, IL-8 and TNF alpha; conditions: endotoxin-induced model; cited from earlier work
bullous pemphigoid = conditions: oral 2 g/day with -cycline antibiotics; cited from earlier work
[7] = system: non-melanoma human skin cancers; conditions: cited from earlier work
[8] = cited from earlier work; remark: listed apart in the source
PARP-1 [9] = molecular target: T1, PARP-1 (Homo sapiens, UniProt P09874); conditions: NAM 50 μM; cited from earlier work
[10] = oral dosage; cited from earlier work
[11] = system: AKs in transplant recipients; conditions: cited from earlier work
[12] = system: melanosome transfer from melanocytes to keratinocytes; conditions: cited from earlier work
PARP-1 [13] = molecular target: T1, PARP-1; experiment: PARP-1 inhibition in vitro (Park J, 2010); type: biochemical
IL-6 = conditions: NAM at 500 μm, the only dose studied; cited from earlier work
actinic keratoses = conditions: high oral dose, placebo-controlled; cited from earlier work
human keratinocytes = conditions: cited from earlier work
[14] = system: women with symmetrical pigmentation; conditions: 5% and 2% NAM moisturizer; cited from earlier work
IL-8 = conditions: keratinocytes; cited from earlier work
murine flank skin = conditions: 10% PHA applied to murine flank skin; cited from earlier work
human SC = conditions: 5% PHA in propylene glycol/myrystyl alcohol co-enhancer non-silicone cream; up to; cited from earlier work

T1 sequence (P09874 whole entry, species assumed): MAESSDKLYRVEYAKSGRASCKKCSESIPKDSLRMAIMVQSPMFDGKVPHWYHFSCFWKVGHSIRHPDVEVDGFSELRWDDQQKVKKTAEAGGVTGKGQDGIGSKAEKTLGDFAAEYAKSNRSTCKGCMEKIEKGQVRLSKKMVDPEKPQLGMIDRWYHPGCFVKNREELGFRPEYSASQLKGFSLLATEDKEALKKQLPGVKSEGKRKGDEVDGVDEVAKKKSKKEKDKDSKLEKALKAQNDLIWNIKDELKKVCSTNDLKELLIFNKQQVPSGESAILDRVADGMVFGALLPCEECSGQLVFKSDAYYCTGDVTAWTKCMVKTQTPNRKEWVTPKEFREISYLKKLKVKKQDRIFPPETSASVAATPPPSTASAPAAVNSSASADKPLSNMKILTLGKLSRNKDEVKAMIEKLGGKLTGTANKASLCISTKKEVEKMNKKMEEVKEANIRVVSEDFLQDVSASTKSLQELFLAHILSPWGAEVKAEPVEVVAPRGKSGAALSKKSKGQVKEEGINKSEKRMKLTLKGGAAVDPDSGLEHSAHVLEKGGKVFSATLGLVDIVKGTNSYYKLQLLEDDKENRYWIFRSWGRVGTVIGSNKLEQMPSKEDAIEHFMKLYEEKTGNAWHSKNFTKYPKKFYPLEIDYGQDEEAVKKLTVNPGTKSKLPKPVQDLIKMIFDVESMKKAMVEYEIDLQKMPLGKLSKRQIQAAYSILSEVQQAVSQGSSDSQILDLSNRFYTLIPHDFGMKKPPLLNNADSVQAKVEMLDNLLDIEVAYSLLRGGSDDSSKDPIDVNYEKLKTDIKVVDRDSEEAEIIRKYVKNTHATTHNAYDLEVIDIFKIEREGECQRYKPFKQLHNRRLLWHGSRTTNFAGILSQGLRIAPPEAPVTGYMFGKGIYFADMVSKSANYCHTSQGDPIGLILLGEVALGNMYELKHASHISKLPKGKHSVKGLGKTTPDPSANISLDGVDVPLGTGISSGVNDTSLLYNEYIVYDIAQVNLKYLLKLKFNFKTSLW

- solubility of C14 alcohol in caprylyl methicone (amount to saturate) ([1]; in caprylyl methicone): 2.30%
- solubility of C14 alcohol in propylene glycol (amount to saturate) ([1]; in propylene glycol): 2.44%
SMILES: CCCCCCCCCCCCCCO [C14 alcohol, myristyl alcohol]
- logP O/W [2]: > 4.00

SMILES: NC[C@H]1CC[C@H](C(=O)O)CC1 [tranexamic acid]
- reduction in melasma (mMASI, MASI) scores (melasma): approximately 50%

SMILES: C=C1/C(=C\C=C2/CCC[C@]3(C)[C@@H]([C@H](C)/C=C/[C@@H](O)C4CC4)CC[C@@H]23)C[C@@H](O)C[C@@H]1O [calcipotriol]
- reduction of PASI score [3]: 77.8±9.7%

- saturated solubility in a range of liquid silicones [4]: appropriately low
SMILES: C[C@@H]1C[C@H]2[C@@H]3CCC4=CC(=O)C=C[C@]4(C)[C@@]3(Cl)[C@@H](O)C[C@]2(C)[C@@]1(OC(=O)c1ccco1)C(=O)CCl [mometasone furoate]
- reduction of acute radiation dermatitis versus emollient cream [5]: significantly more effective than emollient cream alone

SMILES: NC(=O)c1cccnc1 [NAM, nicotinamide]
- concentration required for significant effects on proinflammatory cytokines [6]: 2,000 μM
- time to total remission of bullous pemphigoid (bullous pemphigoid): 6-8 weeks
- peritumoral and tumour infiltrating CD4+ and CD8+ lymphocytes versus placebo ([7]; melanomas arising on treatment): statistically significantly increased
- rates of new non-melanoma skin cancers and actinic keratoses ([7]; oral): safe and effective in reducing the rates
- pKa [8]: ~3.5 and 3.5
- PARP-1 inhibition (PARP-1 [9]): 66%
- half-life of decrease of peak concentrations in plasma and skin [10]: approximately 90 minutes
- patients with AKs significantly decreased in size ([11]; after six months, 18/19 patients): 88%
- patients with complete clinical regression ([11]; seven patients): 42%
- inhibition of melanosome transfer ([12]; 1.0 mmolL^−1 (1 mM) NAM, coculture model): 35-68%
- inhibition of melanosome transfer ([12]; NAM 10 μM, after 3 days of treatment): 14%
- concentration predicted to be required for significant PARP-1 inhibition (PARP-1 [13]): 50 to 100 µM
- reduction in IL-6 compared to untreated control (IL-6): 88%
- effect on actinic keratoses (actinic keratoses): significantly reduced actinic keratoses
- ceramide biosynthesis, % of maximum response (human keratinocytes; NAM 1-10 μM): 75%-100%
- concentration at maximum of ceramide synthesis dose response (human keratinocytes; in vitro): ~10 µM
- increase in biosynthesis of ceramides and other stratum corneum lipids (human keratinocytes; up to): up to 5 fold
- reduction in hyperpigmented lesions [14]: dose-dependent reduction in hyperpigmented lesions
- concentration required to significantly inhibit P. acnes-induced IL-8 mRNA production (IL-8): 5.0 ug/ml and ~40 μM

SMILES: O=C1O[C@H](CO)[C@@H](O)[C@H](O)[C@H]1O [gluconolactone]
- logP O/W [2]: −4.8

SMILES: O=C(O)[C@H](O)[C@@H](O)[C@H](O[C@@H]1O[C@H](CO)[C@H](O)[C@H](O)[C@H]1O)[C@H](O)CO [lactobionic acid]
- decrease in pH at all SC depths (murine flank skin): 0.5-1.0 pH units
- logP O/W [2]: −4.8
- decrease in human SC pH in vivo (human SC): up to 1.5 pH units

- saturated solubility in a range of liquid silicones [4]: appropriately low
SMILES: CCC(=O)O[C@]1(C(=O)SCF)[C@H](C)C[C@H]2[C@@H]3C[C@H](F)C4=CC(=O)C=C[C@]4(C)[C@@]3(F)[C@@H](O)C[C@@]21C [fluticasone propionate]
